Test results reported in US20250188044A1 (HARBIN MEDISAN PHARMACEUTICAL CO., LTD., priority 2021, published 2025).
“Also recorded” adds a separate entry of the source.

What was measured:
[1] = system: nonalcoholic steatohepatitis (NASH); conditions: NCT02704403; cited from earlier work
HepG2 cells = assay: Lipid metabolism-associated gene expression of HepG2 cells (qPCR); assay type: cell-based, human; conditions: 8 nM, nM, and 200 nM, 12 h, vs. blank control (FIGS. 1 and 2)
Experimental: HepG2 cells (human hepatoma cells) were cultured in a 6-well cell culture plate and subjected to adherent culture overnight. […] The old medium was discarded and replaced with drug-containing medium of different concentrations (complete medium without the compound for the blank control group). After dosing, the cells were incubated for 12 h. The medium was discarded and total RNA was extracted by the phenol-chloroform method. After reverse transcription, the real-time quantitative fluorescent PCR experiment (RNA extraction, reverse transcription, quantitative PCR reagents were all purchased from Nanjing Vazyme Biotech Co., Ltd.) was performed using ACTB as an internal reference, and the expression of PDK4, ACADVL, and CPT1A, which are important genes in oxidative metabolism of lipids, was detected according to the steps in the product instructions (the primer sequences are shown in Table 7). […] Some other compounds of the present invention also have similar activity.

[2] = Pharmacokinetic evaluation in rats; assay type: in vivo, SD rats
Experimental: Animals: 6 male SD rats, SPF grade, sourced from the animal repository of Shanghai Medicilon research institution.
The dose in the oral administration group was 10 mpk, and the dose in the intravenous injection group was 2 mpk.
All samples were centrifuged at 18,000 g for 7 min in a low-temperature centrifuge, and plasma was isolated. The content of the compound in the plasma was determined by LC-MS/MS-18, and relevant pharmacokinetic parameters were calculated from the plasma concentration data at different time points.

[3] = system: liver fibrosis model mice; assay: Carbon tetrachloride-induced liver fibrosis mouse model; assay type: in vivo, C57 mice
Experimental: Animals: 60 male C57 mice, SPF grade, 8 weeks old, weighing about 20 g, purchased from Beijing Vital River Laboratory Animal Technology Co., Ltd. All animals were kept on a 12-h alternating circadian rhythm and were fed ad libitum.
Reagent: positive drug IVA337 (Pan-PPAR agonist, currently in an anti-NASH phase II clinical trial), which was prepared according to the method in the literature (J. Med. Chem., 2018, 61, 2246); carbon tetrachloride (purchased from Shanghai Aladdin Biochemical Technology Co., Ltd.), and sunflower seed oil (purchased from Shanghai Yuanye Biotech Co., Ltd.).
. Mice were given food and water normally and subjected to modeling for 3 weeks. The model group and the administration groups were each injected twice a week with a 25% CCl4 oil solution at a dose of 2 mL/kg, and the control group was injected with an oil solvent at the same volume.
. The administration was performed for 3 weeks, and the mice were given food and water normally. The mice in each group were weighed daily, and their body weight, hair, feces, and activity were carefully observed and recorded.
At 30 h after the sixth injection of CCl4, the mice were dissected for the samples. Blood was taken from the orbit, and then the liver was taken after the mice were sacrificed. The right lobular tissue of liver was fixed with 4% paraformaldehyde and used for HE staining of sections.
The pretreated tissues were sent to ServiceBio Biotechnology Co., Ltd. to make HE stained sections and Sirius red stained sections.
The liver tissue stored at −80° C. was taken out and placed in liquid nitrogen, about 10 mg of liver tissue was rapidly cut off, homogenized with a homogenizer after about 500 μL of precooled tissue lysis buffer was added, and then lysed on ice for 30 min. The lysate was centrifuged at 12,000 rpm for 15 min at 4° C., and 170 μL of supernatant was added to a clean EP tube, from which 10 μL of supernatant was taken for BCA protein quantification. 40 μL of 5*loading buffer was added to the rest of protein supernatant for boiling for denaturation, followed by SDS-PAGE electrophoresis, and the protein was transferred onto a PVDF membrane for incubation and elution of related antibodies. Finally, imaging analysis was performed by using a chemiluminescence apparatus.
The liver tissue stored at −80° C. was taken out and placed in liquid nitrogen, about 200 mg of the liver tissue was rapidly cut off, and hydroxyproline in the liver tissue was detected according to the method in the product instructions (Beijing Solarbio Science & Technology Co., Ltd., BC0255).

[4] = Metabolic stability in human liver microsomes; assay type: in vitro ADME
Experimental: A 500 μM solution of the compound in acetonitrile was prepared and diluted to obtain a 1.5 μM drug working solution with a 0.1 M potassium phosphate solution. The drug working solution was co-incubated with a human liver microsome working solution at a final concentration of 0.75 mg/mL and an NADPH solution (final concentration: 550 μM), and the incubation was terminated by adding an acetonitrile solution at 0 min, 15 min, 30 min, 45 min, and 60 min. The residual amount of the compound that remained in the system at each time point was detected by using LC/MS. The absolute value k of the slope was determined by plotting the natural logarithm of the percentage of the residual amount of the compound with the time, and the calculation was performed according to the formula: T1/2 (half-life)=ln2/k=0.693/k.

[5] = system: nuclear receptors other than PPAR (RARα, RARγ, RARβ, FXR, RXRα, RXRγ, RXRβ, VDR, LXRα, LXRβ, THβ, PXR, CAR); assay: Nuclear receptor selectivity, Gal4-LBD reporter gene assays in Cos-7 cells; assay type: cell-based, human; conditions: 1 μM, relative agonistic rate (FIG. 16)
[6] = system: PPARα/δ downstream target gene; conditions: mice, 10 mg/kg intragastric, four consecutive days (FIG. 15)
NASH model mice = assay: CDAA-induced NASH mouse model; assay type: in vivo, C57 mice

CSc1ccc(C(=O)/C=C/c2cc(C)c(OC(C)(C)C(=O)O)c(C)c2)cc1 [GFT505, Elafibranor]
efficacy in anti-NASH phase III clinical trial, interim analysis [1]: substantially ineffective

Cc1cc(Cn2ncn(-c3ccc(OC(F)(F)F)cc3)c2=O)cc(C)c1OC(C)(C)C(=O)O [Compound 61, 2-(2,6-Dimethyl-4-((5-oxo-4-(4-(trifluoromethoxy)phenyl)-4,5-dihydro-1H-1,2,4-triazo 1-1-yl)methyl)phenoxy)-2-methylpropionic acid]
expression of PDK4, ACADVL, and CPT1A (HepG2 cells): improve the expression of PDK4, ACADVL, and CPT1A in a dose-dependent manner with significance
Time-to-peak Tmax ([2]; intravenous injection, 2 mpk): 0.08 ± 0.00 h
Bioavailability F ([2]; oral administration, 10 mpk): 86.35%
Time-to-peak Tmax ([2]; oral administration, 10 mpk): 1.42 ± 1.01 h
anti-liver fibrosis efficacy compared with IVA337 at the same dose ([3]; CCl4 liver fibrosis model mice, 10 mg/kg intragastric daily, 3 weeks, 10 mg/kg): stronger effect than IVA337 at the same dose; also recorded: better effect than IVA337 at the same dose; also recorded: better efficacy than a positive control drug IVA337 at the same dose
hepatic hydroxyproline level ([3]; CCl4 liver fibrosis model mice, 3, 10, 30 mg/kg intragastric daily, 3 weeks (FIG. 11)): down-regulate the hepatic hydroxyproline level of liver fibrosis model mice in a dose-dependent manner
αSMA and Collal protein levels in liver ([3]; CCl4 liver fibrosis model mice, Western blot (FIG. 12)): inhibit the increase of αSMA and Collal protein levels due to modeling in a dose-dependent manner
HE staining: infiltration of inflammatory cells in the portal area ([3]; CCl4 liver fibrosis model mice, liver sections (FIG. 13)): reduce the infiltration of inflammatory cells in the portal area due to modeling in a dose-dependent manner
Sirius red staining: collagen deposition ([3]; CCl4 liver fibrosis model mice, liver sections (FIG. 14)): reduce collagen deposition due to modeling in a dose-dependent manner
metabolic stability in human liver microsomes (in words) ([4]; human liver microsomes): very good metabolic stability in human liver microsomes
half-life ([4]; human liver microsomes 0.75 mg/mL, NADPH, 0-60 min): > 2 h
agonistic effect on nuclear receptors other than PPAR [5]: no significant agonistic effect on nuclear receptors other than PPAR
target genes significantly upregulated in the skeletal muscle [6]: 16
anti-NASH efficacy compared with GFT505 and IVA337 at the same dose (NASH model mice; NASH model mice, 10 mg/kg intragastric daily, 6 weeks, 10 mg/kg): stronger liver enzyme-lowering effect than GFT505 and IVA337 at the same dose; also recorded: stronger effect in resisting liver inflammation than GFT505 and IVA337; also recorded: stronger effect in resisting liver fibrosis than GFT505 and IVA337; also recorded: better effect than GFT505 and IVA337 at the same dose; also recorded: better efficacy than positive control drugs GFT505 and IVA337 at the same dose; also recorded: better anti-NASH efficacy than clinically investigational PPAR agonists GFT505 and IVA337 at the same dose
liver mRNA expression levels of Tnf, IIIb, Ccl4, and Adgre1 (NASH model mice; NASH model mice, 3, 10, 30 mg/kg intragastric daily, 6 weeks (FIG. 6)): inhibit the increase of mRNA expression levels of Tnf, IIIb, Ccl4, and Adgre1 due to modeling in a dose-dependent manner
liver mRNA expression levels of Acta2, Tgfb1, Collal, and Col3a1 (NASH model mice; NASH model mice, 3, 10, 30 mg/kg intragastric daily, 6 weeks (FIG. 7)): significantly inhibit the increase of mRNA expression levels of Acta2, Tgfb1, Collal, and Col3a1 due to modeling
levels of ALT and AST in serum (NASH model mice; NASH model mice, 3, 10, 30 mg/kg intragastric daily, 6 weeks (FIGS. 4 and 5)): down-regulate the levels of ALT and AST in serum of NASH model mice in a dose-dependent manner
HE staining: infiltration of inflammatory cells in the portal area (NASH model mice; NASH model mice, liver sections (FIG. 8)): reduce the infiltration of inflammatory cells in the portal area due to modeling in a dose-dependent manner
Sirius red staining: collagen deposition (NASH model mice; NASH model mice, liver sections (FIG. 9)): reduce collagen deposition due to modeling in a dose-dependent manner
Oil red staining: lipid accumulation (NASH model mice; NASH model mice, liver sections (FIG. 10)): reduce lipid accumulation due to modeling in a dose-dependent manner
